The source of these data is patent US10975077B2 (Novira Therapeutics, Inc., priority 2016, dated 2021).

Broadly, the EC50 is the concentration that produces a half-maximal response.

One experiment concerns HBV (encapsidated HBV DNA, HepG2.2.15 cells). Briefly: HBV replication inhibition assay, BDNA assay in HepG2.2.15 cells. The settings on record: Activity in BDNA-assay. Type of experiment: cell-based. Put shortly:
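Encapsidated HBV DNA in DNase-treated, proteinase K-lysed supernatant was measured by branched DNA after 6 days' compound exposure, refreshed on day 3, of HepG2.2.15 cells in 0.5% DMSO. Signals normalized to DMSO-treated wells; EC50 from nonlinear regression of inhibition against log concentration.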
As for `CN1CC(CNCC(F)F)Cn2nc3c(c2C1=O)CN(C(=O)Nc1cc(Cl)c(F)cc1F)CC3` (single isomer, unassigned) [Compound 126_E2, (S*)—N-(5-chloro-2,4-difluorophenyl)-8-(((2,2-difluoroethyl)amino)methyl)-10-methyl-11-oxo-1,3,4,7,8,9,10,11-octahydro-2H-pyrido[4′,3′:3,4]pyrazolo[1,5-a][1,4]diazepine-2-carboxamide], the EC50 lay within 100 to 500 nM.

Still in this experiment, the particulars now being: Hepatitis B virus, HepG2.2.15, Activity in BDNA-assay.
With `CCC(O)C1CN(C)C(=O)c2c3c(nn2C1)CCN(C(=O)Nc1ccc(F)c(C(F)(F)F)c1F)C3` (single isomer, unassigned) [Compound 103_E1, (R*)—N-(2,4-difluoro-3-(trifluoromethyl)phenyl)-8-((S*)-1-hydroxypropyl)-10-methyl-11-oxo-1,3,4,7,8,9,10,11-octahydro-2H-pyrido[4′,3′:3,4]pyrazolo[1,5-a][1,4] diazepine-2-carboxamide], the EC50 is 1 to 100 nM.

With `CN1CCCCn2nc3c(c2C1=O)CN(C(=O)Nc1ccc(F)c(Cl)c1)CC3` [Compound 110, N-(3-chloro-4-fluorophenyl)-11-methyl-12-oxo-3,4,7,8,9,10,11,12-octahydropyrido[4′,3′:3,4]pyrazolo[1,5-a][1,4]diazocine-2 (1H)-carboxamide], the EC50 lay in the range of 1 to 100 nM.

In the case of `C[C@@H]1Cc2nn3c(c2CN1C(=O)Nc1ccc(F)c(C#N)c1)C(=O)N(C)CC1(CC(O)C1)C3` (stereo partly drawn) [Compound 141, (R)-N-(3-Cyano-4-fluorophenyl)-3-hydroxy-3′,10′-dimethyl-11′-oxo-1′,3′,4′,9′,10′,11′-hexahydro-2′H,7′H-spiro[cyclobutane-1,8′-pyrido[4′,3′:3,4]pyrazolo[1,5-a][1,4]diazepine]-2′-carboxamide], the EC50 lay within 1 to 100 nM.

Turning to `CN1C(=O)c2c3c(nn2CCC1(C)CO)CCN(C(=O)Nc1ccc(F)c(Cl)c1)C3` (stereo not shown) [Compound 061, N-(3-chloro-4-fluorophenyl)-9-(hydroxymethyl)-9,10-dimethyl-11-oxo-1,3,4,7,8,9,10,11-octahydro-2H-pyrido[4′,3′:3,4]pyrazolo[1,5-a][1,4]diazepine-2-carboxamide], the EC50 lay in the range of 1 to 100 nM.

With `C[C@@H]1Cc2nn3c(c2CN1C(=O)Nc1ccc(F)c(C(F)(F)F)c1)C(=O)N(C)CC(F)(CO)C3` (single isomer, unassigned) [Compound 133_D1, (3R,8R*)-8-fluoro-N-(4-fluoro-3-(trifluoromethyl)phenyl)-8-(hydroxymethyl)-3,10-dimethyl-11-oxo-1,3,4,7,8,9,10,11-octahydro-2H-pyrido[4′,3′:3,4]pyrazolo[1,5-a][1,4]diazepine-2-carboxamide_D1], the EC50 is 1 to 100 nM.

As to `CN1CC(N2CCCC2)Cn2nc3c(c2C1=O)CN(C(=O)Nc1ccc(F)c(Cl)c1)CC3` (stereo not shown) [Compound 024, N-(3-chloro-4-fluorophenyl)-10-methyl-11-oxo-8-(pyrrolidin-1-yl)-1,3,4,7,8,9,10,11-octahydro-2H-pyrido[4′,3′:3,4]pyrazolo[1,5-a][1,4]diazepine-2-carboxamide], the EC50 lay within 1 to 100 nM.
